Results from ChEMBL document CHEMBL6120996, “Discovery and optimization of 1,2,4-triazole derivatives as novel ferroptosis inhibitors” (Eur J Med Chem, 2025).
The source made the active and inactive calls. The rule behind the calls is not given here.

Key:
786-0 [1] = assay: Metal chelating activity assessed as Fe2+ chelation in human 786-0 cells assessed as intracellular ferrous ion level at 100 uM by FerroOrange fluorescent probe based assay; type: cell-based
[2] = Metal chelating activity assessed as Fe2+ chelation assessed as absorbance peak at 430 nm by UV-vis spectroscopy; details: dose 1.0 µM
786-0 [3] = assay: Inhibition of RSL3-induced ferroptosis in human 786-0 cells assessed as cell viability incubated for 24 hrs by CellTiter-LumiTM assay; type: functional, cell-based; details: 786-0, 24 h
HT-1080 = assay: Anti-ferroptotic activity in human GPX4 knockout HT-1080 cells assessed as cell viability at 1 uM incubated for 24 hrs by CellTiter-LumiTM plus luminescent cell viability assay; type: functional, cell-based
786-0 [4] = assay: Inhibition of RSL3-induced ferroptosis in human 786-0 cells assessed as cell viability by assessing cell morphology incubated for 24 hrs by CellTiter-LumiTM plus luminescent cell viability assay; type: functional, cell-based; details: 786-0, 24 h
[5] = Inhibition of erastin induced ferroptosis in human 786-0 cells assessed as cell viability incubated for 24 hrs by CellTiter-LumiTM assay; type: functional, cell-based; details: 786-0, 24 h
[6] = Inhibition of RSL3 induced ferroptosis in H9c2 cells assessed as cell viability incubated for 24 hrs by CellTiter-LumiTM assay; type: functional, cell-based; details: Rattus norvegicus, H9c2, 24 h
[7] = Inhibition of RSL3 induced ferroptosis in human HT-1080 cells assessed as cell viability incubated for 24 hrs by CellTiter-LumiTM assay; type: functional, cell-based; details: HT-1080, 24 h
[8] = Inhibition of RSL3 induced ferroptosis in human SK-HEP1 cells assessed as cell viability incubated for 24 hrs by CellTiter-LumiTM assay; type: functional, cell-based; details: SK-HEP1, 24 h
[9] = Inhibition of RSL3 induced ferroptosis in human MHCC97H cells assessed as cell viability incubated for 24 hrs by CellTiter-LumiTM assay; type: functional, cell-based
786-0 [10] = assay: Inhibition of STS induced apoptosis in human 786-0 cells assessed as cell viability at 1 uM incubated for 24 hrs by CellTiter-LumiTM assay; type: functional, cell-based
786-0 [11] = assay: Inhibition of H2O2 induced necrosis in human 786-0 cells assessed as cell viability at 1 uM incubated for 24 hrs by CellTiter-LumiTM assay; type: functional, cell-based
786-0 [12] = assay: Metal chelating activity assessed as Fe2+ chelation in human 786-0 cells assessed as intracellular ferrous ion level at 1 uM by FerroOrange fluorescent probe based assay; type: cell-based
786-0 [13] = assay: Inhibition of RSL3 induced ferroptosis in human 786-0 cells assessed as cell viability in presence of iFSP1 at 1 uM measured after 24 hrs by CellTiter-LumiTM assay; type: functional, cell-based
786-0 [14] = assay: Effect on erastin-induced decrease in GSH level in human 786-0 cells at 1 uM incubated for 10 hrs by Total intracellular GSH assay; type: functional, cell-based
786-0 [15] = assay: Cytotoxicity against human 786-0 cells assessed as cell viability incubated for 24 hrs by CellTiter-LumiTM assay; type: functional
786-0 [16] = assay: Inhibition of RSL3 induced lipid-ROS accumulation in human 786-0 cells incubated for 2.5 hrs by C11-BODIPY 581/591 staining coupled with flow cytometry analysis; type: functional, cell-based; details: dose 0.1-1 µM
786-0 [17] = assay: Inhibition of RSL3 induced lipid-ROS accumulation in human 786-0 cells assessed as fast elimination at 1 uM measured after 0.25 to 2.5 hrs by C11-BODIPY 581/591 staining coupled with flow cytometry analysis; type: functional, cell-based; details: time 0.25-2.5 hrs
SK-HEP1 [18] = assay: Inhibition of RSL3 induced lipid-ROS accumulation in human SK-HEP1 cells at 1 uM incubated for 2.5 hrs by C11-BODIPY 581/591 staining coupled with flow cytometry analysis; type: functional, cell-based
SK-HEP1 [19] = assay: Inhibition of RSL3 induced lipid-ROS accumulation in human SK-HEP1 cells at 1 uM incubated for 0.5 hrs by C11-BODIPY 581/591 staining coupled with flow cytometry analysis; type: functional, cell-based
[20] = Antioxidant activity assessed as free radical scavenging activity incubated for 30 mins in dark by DPPH assay relative to control; type: functional
[21] = Suppression of autoxidation of liposomes egg ( unknown origin) phosphatidylcholine lipids as substrate at 0.1 to 2.5 uM incubated for 5 min by C11-BODIPY 581/591 dye based fluorescent assay; type: functional; details: dose 0.1-2.5 µM
786-0 [22] = assay: Effect on GPX4 expression in human 786-0 cells at 1 uM incubated for 2.5 hrs by Western blot analysis; type: functional, cell-based
786-0 [23] = assay: Effect on IRP1 expression in human 786-0 cells at 1 uM incubated for 2.5 hrs by western blot analysis; type: functional, cell-based
786-0 [24] = assay: Effect on ACSL4 expression in human 786-0 cells at 1 uM incubated for 2.5 hrs by Western blot analysis; type: functional, cell-based
786-0 [25] = assay: Effect on SLC7A11 expression in human 786-0 cells at 1 uM incubated for 2.5 hrs by Western blot analysis; type: functional, cell-based
786-0 [26] = assay: Effect on TFRC expression in human 786-0 cells at 1 uM incubated for 2.5 hrs by Western blot analysis; type: functional, cell-based
786-0 [27] = assay: Effect on FTH1 expression in human 786-0 cells at 1 uM incubated for 2.5 hrs by western blot analysis; type: functional, cell-based
786-0 [28] = assay: Effect on FTL expression in human 786-0 cells at 1 uM incubated for 2.5 hrs by western blot analysis; type: functional, cell-based
786-0 [29] = assay: Inhibition of RSL3-induced ferroptosis in human 786-0 cells assessed as cell protection by assessing cell morphology at 1 uM incubated for 24 hrs; type: functional, cell-based
786-0 [30] = assay: Effect on TFRC expression in human 786-0 cells in presence of 0.25 uM RSL3 at 1 uM incubated for 2.5 hrs by Western blot analysis; type: functional, cell-based
786-0 [31] = assay: Effect on IRP1 expression in human 786-0 cells in presence of 0.25 uM RSL3 at 1 uM incubated for 2.5 hrs by Western blot analysis; type: functional, cell-based
786-0 [32] = assay: Effect on FTH1 expression in human 786-0 cells in presence of 0.25 uM RSL3 at 1 uM incubated for 2.5 hrs by Western blot analysis; type: functional, cell-based
786-0 [33] = assay: Effect on FTL expression in human 786-0 cells in presence of 0.25 uM RSL3 at 1 uM incubated for 2.5 hrs by Western blot analysis; type: functional, cell-based
[34] = Microsomal stability in human liver microsomes assessed as hepatic clearance at 1 uM by LC-MS/MS analysis; type: ADME, Microsome
[35] = Microsomal stability in human liver microsomes assessed as hepatic extraction ratio at 1 uM by LC-MS/MS analysis; type: ADME, Microsome; details: read-out: ERH
[36] = Microsomal stability in rat liver microsomes assessed as hepatic extraction ratio at 1 uM by LC-MS/MS analysis; type: ADME, Microsome; details: read-out: ERH
[37] = Metabolic stability in human plasma assessed as half life at 1 uM by LC-MS/MS analysis; type: ADME, cell-free
[38] = Metabolic stability in rat plasma assessed as half life at 1 uM by LC-MS/MS analysis; type: ADME, cell-free
[39] = Microsomal stability in human liver microsomes assessed as half life at 0.1 uM by LC-MS/MS analysis; type: ADME, Microsome; details: microsomes, 0.1 µM
[40] = Microsomal stability in rat liver microsomes assessed as half life at 0.1 uM by LC-MS/MS analysis; type: ADME, Microsome; details: microsomes, 0.1 µM
[41] = Microsomal stability in human liver microsomes assessed as hepatic extraction ratio at 0.1 uM by LC-MS/MS analysis; type: ADME, Microsome; details: read-out: ERH
[42] = Microsomal stability in rat liver microsomes assessed as hepatic extraction ratio at 0.1 uM by LC-MS/MS analysis; type: ADME, Microsome; details: read-out: ERH
Mus musculus [43] = assay: Anti-ferroptotic activity in ConA-induced C57 mouse liver injury model assessed as reduction in ALT levels in serum at 10 mg/kg, ip pre-treated 1 day followed by treated with ConA measured after 24 hrs; type: functional, organism-based; details: time 2.0 day
Mus musculus [44] = assay: Anti-ferroptotic activity in ConA-induced C57 mouse liver injury model assessed as reduction in AST levels in serum at 10 mg/kg, ip pre-treated 1 day followed by challenged with ConA measured after 24 hrs; type: functional, organism-based
Mus musculus [45] = assay: Anti-ferroptotic activity in ConA-induced C57 mouse liver injury model assessed as decrease in acute liver injury at 10 mg/kg, ip pre-administered one day followed by treated with ConA measured after 24 hrs by HE staining based analysis; type: functional, organism-based; details: time 48.0 hrs
Mus musculus [46] = assay: Anti-ferroptotic activity in ConA-induced C57 mouse acute liver injury model assessed as reduction in malondialdehyde levels at 10 mg/kg, ip pre-administered one day followed by treated with ConA measured after 24 hrs by MDA kit assay; type: functional, organism-based; details: time 48.0 hrs
Mus musculus [47] = assay: Anti-ferroptotic activity in ConA-induced C57 mouse acute liver injury model assessed as assessed as reduction in PTGS2 mRNA levels in liver tissue at 10 mg/kg, ip pre-administered one day followed by treated with ConA measured after 24 hrs by qRT-PCR analysis; type: functional, organism-based; details: time 48.0 hrs
Mus musculus [48] = assay: Anti-ferroptotic activity in ConA-induced C57 mouse acute liver injury model assessed as assessed as reduction in 4-HNE accumulation in liver tissue at 10 mg/kg, ip pre-administered one day followed by treated with ConA measured after 24 hrs by 4-HNE staining based analysis; type: functional, organism-based; details: time 48.0 hrs

SMILES: CC(=O)N(O)CCCCCNC(=O)CCC(=O)N(O)CCCCCNC(=O)CCC(=O)N(O)CCCCCN
- Activity (786-0 [1]): Active
- Activity [2]: Active

SMILES: COC(=O)c1ccc(COc2c(OC)cccc2C2N(c3ccccc3)N=C(C(C)=O)N2c2ccc(N(C)C)cc2)cc1 (stereo not given)
- EC50 (786-0 [3]): 70 nM
- Activity (HT-1080): Active
- EC50 (786-0 [4]): 91 nM
- EC50 [5]: 52 nM
- EC50 [6]: 171 nM
- EC50 [7]: 317 nM
- EC50 [8]: 128 nM
- EC50 [9]: 635 nM
- inhibition (786-0 [10]): inactive
- inhibition (786-0 [11]): inactive
- Activity (786-0 [12]): inactive
- inhibition (786-0 [13]): Active
- Activity (786-0 [14]): inactive
- CC50 (786-0 [15]): > 40000 nM
- inhibition (786-0 [16]): Dose-dependent-effect
- inhibition (786-0 [17]): Active; Eliminated As Fast As Fer-1
- inhibition (SK-HEP1 [18]): Active
- inhibition (SK-HEP1 [19]): Active
- Activity [20]: Active
- Activity [21]: Dose-dependent-effect
- Activity (786-0 [22]): inactive
- Activity (786-0 [23]): inactive
- Activity (786-0 [24]): inactive
- Activity (786-0 [25]): inactive
- Activity (786-0 [26]): inactive
- Activity (786-0 [27]): inactive
- Activity (786-0 [28]): inactive
- Activity (786-0 [29]): Active
- Activity (786-0 [30]): inactive
- Activity (786-0 [31]): inactive
- Activity (786-0 [32]): inactive
- Activity (786-0 [33]): inactive

SMILES: C[C@]12CC[C@H]3[C@@H](CCC4=CC(=O)CC[C@@]43C)[C@@H]1CC[C@@H]2O [TESTOSTERONE]
- CLhep predicted at 1 µM [34]: 19.3 mL/min/kg
- hepatic extraction ratio at 1 µM [35]: 0.935
- hepatic extraction ratio at 1 µM [36]: 0.994

SMILES: COc1ccc(COc2c(OC)cccc2C2N(c3ccccc3)N=C(C(C)=O)N2c2ccc(N(C)C)cc2)cc1 (stereo not given)
- EC50 (786-0 [3]): 80 nM
- Activity (HT-1080): Active
- half-life at 1 µM [37]: 23.9 h
- half-life at 1 µM [38]: 4.97 h
- t1/2 [39]: 4.02 min
- t1/2 [40]: 1.66 min
- hepatic extraction ratio at 0.1 µM [41]: 0.99
- hepatic extraction ratio at 0.1 µM [42]: 0.993
- EC50 (786-0 [4]): 84 nM
- EC50 [5]: 54 nM
- EC50 [6]: 142 nM
- EC50 [7]: 74 nM
- EC50 [8]: 164 nM
- EC50 [9]: 349 nM
- inhibition (786-0 [10]): inactive
- inhibition (786-0 [11]): inactive
- Activity (786-0 [12]): inactive
- inhibition (786-0 [13]): Active
- Activity (786-0 [14]): inactive
- CC50 (786-0 [15]): > 10000 nM
- inhibition (786-0 [16]): Dose-dependent-effect
- inhibition (786-0 [17]): Active; Eliminated As Fast As Fer-1
- inhibition (SK-HEP1 [18]): Active
- inhibition (SK-HEP1 [19]): Active
- Activity [20]: Active
- Activity [21]: Dose-dependent-effect
- Activity (Mus musculus [43]): Active
- Activity (Mus musculus [44]): Active
- Activity (786-0 [22]): No effect
- Activity (786-0 [23]): No effect
- Activity (786-0 [24]): No effect
- Activity (786-0 [25]): No effect
- Activity (786-0 [26]): No effect
- Activity (786-0 [27]): No effect
- Activity (786-0 [28]): No effect
- Activity (Mus musculus [45]): Active
- Activity (Mus musculus [46]): Active
- Activity (Mus musculus [47]): Active
- Activity (Mus musculus [48]): Active
- Activity (786-0 [30]): inactive
- Activity (786-0 [31]): inactive
- Activity (786-0 [32]): inactive
- Activity (786-0 [33]): inactive
